The results in this text go back to patent publication US20250328351A1, “CARBONIC ANHYDRASE INHIBITORS AND ANTIBIOTICS AGAINST MULTIDRUG RESISTANT BACTERIA” (Purdue Research Foundation, priority 2018, published 2025).

The test system of data set [1] is Bifidobacterium breve JCP7499 HM 1120. The data set can be described thus: MIC against human normal gut microbiota. The class given is cell-based. The conditions noted are these: JCP7499HM1120, Table 3, BHIS broth, anaerobic, 48 hours, read-out: MIC. In a few lines: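 Broth microdilution with ~5×10^5 CFU/ml inoculum from 0.5 McFarland suspension; Bifidobacterium and Bacteroides in supplemented BHI broth, anaerobic, Lactobacillus in MRS broth under 5% CO2. Plates with serial compound dilutions incubated 48 h at 37° C.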

Data set [2] concerns Mutant-2 of Enterococcus fecalis NR 31975. The data set can be described thus: microbe, parasite or virus in culture. It counts as cell-based.
For data set [3], the system named is Mutant-11 of Enterococcus fecalis NR 31975. The data set is described as follows: microbe, parasite or virus in culture. It counts as cell-based.
Data set [4] relates to Mutant-8 of Enterococcus fecalis NR 31975. The data set is described as follows: microbe, parasite or virus in culture. It counts as cell-based.
The subject of data set [5] is Mutant-9 of Enterococcus fecalis NR 31975. The data set is described as follows: microbe, parasite or virus in culture. The class given is cell-based.
The subject of another data set is Caco-2 cells. The data set is described as follows: In vitro cytotoxicity, MTS assay. To be noted: concentration up to 128 μg/mL; two hours incubation. Here is the method:
Method: Compounds AS005H, AS005J, AS004B, AS005K, AS005A and 005D were assayed (at concentrations of 64 and 128 μg/mL) against a human colorectal adenocarcinoma (Caco-2) cell to determine the potential toxic effect to mammalian cells in vitro. Briefly, cells were cultured in Dulbecco's Modified Eagle Medium (DMEM) supplemented with 20% fetal bovine serum (FBS), non-essential amino acids (1×), penicillin-streptomycin at 37° C. with CO2 (5%). Control cells received DMSO alone at a concentration equal to that in drug-treated cell samples. The cells were incubated with the compounds (in triplicate) in a 96-well plate at 37° C. with CO2 (5%) for two hours. The assay reagent MTS 3-(4,5-dimethylthiazol-2-yl)-5-(3-carboxymethoxyphenyl)-2-(4-sulfophenyl)-2H-tetrazolium) (Promega, Madison, WI, USA) was subsequently added and the plate was incubated for four hours. Absorbance readings (at OD490) were taken using a kinetic microplate reader (Molecular Devices, Sunnyvale, CA, USA). The quantity of viable cells after treatment with each compound was expressed as a percentage of the viability of DMSO-treated control cells (average of triplicate wells±standard deviation). The toxicity data was analyzed via a two-way ANOVA, with post hoc Dunnet's multiple comparisons test (P<0.05), utilizing GraphPad Prism 6.0 (GraphPad Software, La Jolla, CA).
Percent viable mammalian cells (measured as average absorbance ratio (test agent relative to DMSO) for cytotoxicity analysis of AS005H, AS005J, AS004B, AS005K, AS005A and 005D compounds (tested in triplicate) at 64 and 128 μg/mL against Caco-2 cells using the MTS 3-(4,5-dimethylthiazol-2-yl)-5-(3-carboxymethoxyphenyl)-2-(4-sulfophenyl)-2H-tetrazolium) assay. Dimethyl sulfoxide (DMSO) was used as a negative control to determine a baseline measurement for the cytotoxic impact of each compound. The absorbance values represent an average of a minimum of three samples analyzed for each compound. Error bars represent standard deviation values for the absorbance values. A two-way ANOVA, with post hoc Dunnet's multiple comparisons test, determined statistical difference (denoted by the asterisk) (P<0.05) between the values obtained for each compound and DMSO (negative control, used as solvent for the compounds).
Background: Tetrazolium dyes change colour on reduction, which living cells bring about.

≈ marks a conversion by molar mass, not a printed value.

Turning to `CC(C)=CC(=O)Nc1nnc(S(N)(=O)=O)s1` [CAI0016, 3-Methyl-N-(5-sulfamoyl-1,3,4-thiadiazol-2-yl)but-2-enamide], the MIC in data set [1] is over 64 µg/mL; in data set [2], 8 µg/mL (≈ 30.5 µM); in data set [3], 4 µg/mL (≈ 15.2 µM); in data set [4], 4 µg/mL (≈ 15.2 µM); in data set [5] it was 4 µg/mL (≈ 15.2 µM). Moreover, in the data set on Caco-2 cells, the “toxicity to Caco-2 cells (percent viable cells, MTS)” value was “non-toxic”.
